Experimental data: article PMC4007625, “A phase I study of AST1306, a novel irreversible EGFR and HER2 kinase inhibitor, in patients with advanced solid tumors” (Journal of Hematology & Oncology, 2014)

Experiments:
[1] = test system: HER2; set-up: method as in PMID 21789172, PMID 18408761, PMID 15728811, PMID 15737014, PMID 17085664; conditions: preclinical; read-out: IC50 inhibiting HER2; cited from earlier work
[2] = clinical; conditions: human, in vivo; for AUC(0-inf): AUC0-∞
Description: This was the first-in-human phase I dose-escalation study of AST1306 for patients with advanced solid tumors. AST1306 was orally administered without food for one day followed by two days off to evaluate single dose PK profiles. After that, it was continuously administered for 21 days and two days off to assess multiple dose PK profiles and safety. […] Three times daily in three dose levels (800 mg TID, 1000 mg TID and 1200 mg TID) were explored subsequently. Treatment was then repeated at the same dose level in 28-day cycles until unacceptable toxicities, disease progression or the patient’s withdrew from the study. PK extension study was performed to enroll additional patients up to at least eight patients per dose cohort in three dose levels (MTD, one or two doses level lower than the MTD) for further evaluation of PK profiles.
All PK sampling was performed in the first cycle. Plasma concentrations of AST1306 single-day dosing were determined at the following distinct time points: pre-dose, 0.5 h, 1 h, 1.5 h, 2 h, 3 h, 4 h, 6 h, 8 h, 10 h, 12 h, 24 h, 36 h, and 48 h after the single dose administration in the 400 mg QD and 800 mg QD dose cohorts. For the next five dose cohorts with twice daily (once every 12 hours) administration, the time points of plasma sample collection were as follows: pre-dose, 0.5 h, 1 h, 1.5 h, 2 h, 3 h, 4 h, 6 h, 8 h, and 12 h after the first dose administration, and pre-dose, 1 h, 2 h, 3 h, 4 h, 6 h, 8 h, 12 h, and 24 h after the second dose administration. Three dose cohorts with three times daily (once every 8 hours) administration were further investigated with distinct time points for plasma collecting (pre-dose, 0.5 h, 1 h, 1.5 h, 2 h, 3 h, 4 h, 6 h, and 8 h after the first dose administration; 1 h, 2 h, 3 h, 4 h, 5 h, 6 h, and 8 h after the second dose administration; 1 h, 2 h, 3 h, 4 h, 8 h, 12 h, 24 h, and 36 h after the third dose administration). PK parameters of AST1306 were also determined on days 10, 23 (pre-dose and 2 h after the first dosing), and 24 (steady state, the same time points as the first-day dosing) of continuous treatment. The PK sampling schedule for the PK extension phase was totally the same as that for the dose escalation study.
PK analysis was conducted using Phoenix WinNonlin® software (version 6.1, Pharsight, Mountainview, CA). Standard non-compartmental methods were used to calculate the area under the plasma concentration-time curve over the time interval from 0 to 24 h (AUC0–24,ss), maximum measured concentration of the analyte in plasma (Cmax), and terminal half-life of the analyte in plasma (t1/2). Time from dosing to the maximum concentration of the analyte in plasma (tmax,) was reported as a median value. The concentration at the trough level was determined using the concentration at 24 h (C24) on steady state days.
The power model method was used to assess the dose proportionality. The differences between fed and fasting conditions were assessed by ANOVA, and 90% confidence intervals for ratios were given.

[3] = Food-effect study, two-way crossover, single dose; format: in vivo, human; conditions: for apparent oral clearance (CL/F) / Tmax / AUC(0-inf) / AUC(0-t) / Cmax / half-life: 1000 mg single oral dose; for apparent oral clearance (CL/F) / AUC(0-inf) / AUC(0-t) / Cmax / half-life: geometric mean (range); for Tmax / AUC(0-inf) / AUC(0-t) / Cmax / half-life: plasma, po; for Tmax: (range); for half-life: read-out: t1/2z (converted)
Description: Figure S1). On day 1, 6 subjects were fasted and 6 were fed, and all 12 subjects received a single dose of AST1306. […] On “fasting” days (day 1 or 4), subjects were required to fast for a minimum of 2 h prior to dosing, and for at least 1 h post-dosing. […] PK sampling then took place on day 1 and day 4. The PK sampling time points were pre-dose, 0.5, 1, 1.5, 2, 2.5, 3, 4, 6, 8, 12, and 24 hours after dosing. The power model method was used to assess the dose proportionality.

[4] = test system: EGFR; set-up: method as in PMID 21789172, PMID 18408761, PMID 15728811, PMID 15737014, PMID 17085664; conditions: cited from earlier work
[5] = human, 1000 mg, fed, high-fat breakfast (n =12)

C=CC(=O)Nc1ccc2ncnc(Nc3ccc(OCc4cccc(F)c4)c(Cl)c3)c2c1 [AST1306]
IC50 [1]: 3 nM
Tmax [2]: 2.65 (43.8) h
multiple-dose vs single-dose exposure (mean accumulation ratio R, AUCss day 23–24 / AUC0-24h day 1) [2]: no more than 3 fold
t1/2z [2]: 5.56 (51.6) h
AUC0-24 h ([2]; 400 mg): 116 ng·h/mL
AUC0-∞ ([2]; 400 mg): 119 ng·h/mL
AUC(0-t) ([2]; 400 mg): 116 ng·h/mL
Cmax ([2]; 400 mg): 22.6 ng/mL
R_AUC (accumulation ratio, AUCss days 23–24 / AUC0-24h day 1) ([2]; 400 mg): 2.81
Tmax ([2]; 400 mg): 2.00 h
t1/2z ([2]; 400 mg): 4.66 h
λz ([2]; 400 mg): 0.149 h⁻¹
Cmax3 ([2]; 600 mg): 64.5 (69.4) ng/mL
Cmax ([2]; 800 mg): 50.0 (16.0) ng/mL
Cmax2 ([2]; 800 mg): 74.3 (20.4) ng/mL
Cmax ([2]; 800 mg, Cmax): 67.7 ng/mL
AUC0-24 h ([2]; 1000 mg): 696 (57.6) h*ng/mL
AUC0-∞ ([2]; 1000 mg): 792 (54.1) h*ng/mL
AUC(0-t) ([2]; 1000 mg): 781 (54.7) h*ng/mL
Cmax ([2]; 1000 mg): 75.0 (52.1) ng/mL
Cmax3 ([2]; 1000 mg): 89.7 (42.1) ng/mL
AUC(0-t) ([2]; 1000 mg, AUC0-24 h): 1130 ng·h/mL
AUC(0-t) ([2]; 1000 mg, AUC0-t): 1420 ng·h/mL
AUC(0-inf) ([2]; 1000 mg): 1430 ng·h/mL
Cmax ([2]; 1000 mg, Cmax): 47.3 ng/mL
Cmax ([2]; 1200 mg): 50.9 (70.6) ng/mL
Cmax3 ([2]; 1200 mg): 210.0 (81.5) ng/mL
Cmax ([2]; 1200 mg, Cmax): 61.9 ng/mL
Cmax2 ([2]; 1500 mg): 103.0 (25.8) ng/mL
R_AUC (accumulation ratio, AUCss days 23–24 / AUC0-24h day 1) ([2]; 1500 mg): 0.87 (32.0)
Tmax ([2]; 1500 mg): 1.92 (30.5) h
t1/2z ([2]; 1500 mg): 3.48 (12.8) h
λz ([2]; 1500 mg): 0.202 (13.3) 1/h
AUC(0-t) ([2]; 1500 mg, AUC0-24 h): 997 ng·h/mL
AUC(0-t) ([2]; 1500 mg, AUC0-t): 1190 ng·h/mL
AUC(0-inf) ([2]; 1500 mg): 1200 ng·h/mL
Cmax ([2]; 1500 mg, Cmax): 57.1 ng/mL
half-life ([2]; gMean terminal half-life): 3.33 to 7.57 h
time to Cmax after oral administration ([2]; po): 1.83 to 3.67 h
half-life ([2]; t1/2): 3 to 5 h
half-life ([2]; terminal half-life): 3.48 to 5.56 h
apparent oral clearance (CL/F) ([3]; fasted (n =12)): 3970 (1370-8890) L/h
apparent oral clearance (CL/F) ([3]; fed, high-fat breakfast (n =12)): 1360 (608-2340) L/h
Treatment ratio fed/fasted, AUC0-∞ ([3]; human, in vivo, 1000 mg): 269 (208-348) %
Treatment ratio fed/fasted, AUC0–t ([3]; human, in vivo, 1000 mg): 284 (219-368) %
Treatment ratio fed/fasted, Cmax ([3]; human, in vivo, 1000 mg): 228 (170-305) %
Tmax ([3]; human, 1000 mg, fasted (n =12)): 2.38 h
AUC(0-inf) ([3]; human, 1000 mg, fasted (n =12)): 331 ng·h/mL
AUC(0-t) ([3]; human, 1000 mg, fasted (n =12)): 311 ng·h/mL
Cmax ([3]; human, 1000 mg, fasted (n =12)): 70.3 ng/mL
half-life ([3]; human, 1000 mg, fasted (n =12)): 6.99 h
Tmax [3, 5]: 4.25 h
AUC(0-inf) [3, 5]: 814 ng·h/mL
AUC(0-t) [3, 5]: 797 ng·h/mL
Cmax [3, 5]: 139 ng/mL
half-life [3, 5]: 4.19 h
fold more potent than afatinib and dacomitinib ([4]; EGFR and HER2 IC50): 5-15 fold
IC50 ([4]; preclinical, read-out: IC50 inhibiting EGFR): 0.5 nM
